These results are taken from paper PMC9377236, “Cytotoxic effects of extracts obtained from plants of the Oleaceae family: bio-guided isolation and molecular docking of new secoiridoids from Jasminum humile” (Pharmaceutical Biology, 2022).

Values after ≈ are worked out from the molar mass of the structure shown.

Series [1] is described as follows: MTT assay, cytotoxic concentration (CC50) on Vero cells. Format: cell-based. The conditions noted are these: African green monkey, mean ± SD, three repeats. As to the method: (§1) The cytotoxic potential was measured against Vero cells as well as MCF-7, HepG-2, and THP-1 cell lines provided from VACSERA, Agouza, Cairo, Egypt using a microplate 3-(4,5-dimethythiazole-2yl)-2,5-diphenyl-tetrazolium bromide (MTT) method (Ashour et al. [2006]; Njeru and Muema [2007]). All experiments were repeated three times with doxorubicin (Sigma, USA) as a positive control and 0.1% DMSO media as the negative control, respectively.
(§2) All statistical analyses were performed using GraphPad Prism version 9.2.0 to calculate the half-maximal inhibitory concentration (IC50) and the half-maximal cytotoxic concentration (CC50) where the level of significance was set at ([…]). Quantitative data were expressed as mean ± standard deviation (SD). GraphPad Prism version 9.2.0 was also used to create multiple bar charts of the cytotoxic activity and cell viability.

Another series has as its system HepG-2 cell line. As to the kind of experiment: MTT cytotoxicity assay, HepG-2. It counts as cell-based, human. The conditions noted are these: for IC50: Homo sapiens, HepG2, HepG-2 liver cancer cell line, MTT assay, mean ± SD; for SI, HepG-2: selectivity index = CC50 (Vero) / IC50 (HepG-2). As to the method: as §1
(§3) The selectivity index (SI) was obtained after dividing the IC50 value of Vero cells (which can be expressed as CC50) by the specific IC50 of cancer cell lines. High (SI) indicates high anticancer activity and low cellular toxicity. Selectivity was considered to be valuable for those with (SI) greater than three (Oliveira et al. [2015]; Tsemeugne et al. [2021]; Yousefbeyk et al. [2022]).
as §2
(In general: Tetrazolium assays rely on reduction of a dye to a coloured formazan, in cell work by metabolically active cells.)

A further series deals with MCF-7 cell line. Nature of the series: MTT cytotoxicity assay, MCF-7. Format: cell-based, human. The settings on record: for IC50: Homo sapiens, MCF7, MCF-7 breast cancer cell line, MTT assay, mean ± SD; for SI, MCF-7: selectivity index = CC50 (Vero) / IC50 (MCF-7). As to the method: as §1, §3, §2
In the next series the test system is THP-1 cell line. As to the kind of experiment: MTT cytotoxicity assay, THP-1. The conditions noted are these: for IC50: Homo sapiens, THP-1 leukaemia cell line, MTT assay, mean ± SD; for SI, THP-1: selectivity index = CC50 (Vero) / IC50 (THP-1). Format: cell-based, human. As for the experimental part: as §1, §3, §2

The CC50 is the concentration at which the toxic effect on the cells reaches its halfway point. As a reminder, the IC50 is the concentration at which inhibition is half-maximal. Read a low IC50 as greater potency. In series [1], `O=c1ccc2ccccc2o1` [Compound 6, coumarin] yielded a CC50 of 196 ± 13.3 µg/mL (≈ 1340 µM). In the series with HepG-2 cell line, it took 165 ± 7.08 µg/mL (≈ 1130 µM) to reach half-maximal inhibition (IC50) and the “SI, HepG-2” value came out at 1.19. In the series with MCF-7 cell line, the 50% inhibitory concentration (IC50) amounted to 194 ± 8.8 µg/mL (≈ 1330 µM) and the “SI, MCF-7” value is on record as 1.01. Also, in the series with THP-1 cell line, 296 ± 25.7 µg/mL (≈ 2020 µM) corresponded to half-maximal inhibition (IC50) and the “SI, THP-1” value is given as 0.66.

As for `CC(CO)C1CC2OC(=O)C3=COC(C)C(C=O)C3CC(=O)OCC1C2C` (single isomer, unassigned; (-)) [Compound 2, (-)-1-Methyl-9-aldojasmigenin], the CC50 in series [1] was 60.5 ± 2.72 µg/mL (≈ 159 µM). Besides, in the series with HepG-2 cell line, the IC50 stood at 43.3 ± 4.78 µg/mL (≈ 114 µM) and the “SI, HepG-2” value came out at 1.40. Moreover, in the series with MCF-7 cell line, half-maximal inhibition (IC50) was put at 60.6 ± 2.3 µg/mL (≈ 159 µM) and the “SI, MCF-7” value stood at 1.00. In the series on THP-1 cell line, the IC50 was 68.9 ± 9.71 µg/mL (≈ 181 µM) and the “SI, THP-1” value worked out at 0.88.

In series [1], `OC[C@@H](O)[C@@H](O)[C@H](O)[C@H](O)CO` [Compound 7, D-mannitol] had a CC50 of 173 ± 6.2 µg/mL (≈ 951 µM). Further, in the series with HepG-2 cell line, the half-maximal inhibitory concentration (IC50) is 69.1 ± 12.3 µg/mL (≈ 379 µM) and the “SI, HepG-2” value was 2.52. Further, in the series with MCF-7 cell line, inhibition was half-maximal at 161 ± 11.9 µg/mL (≈ 882 µM) (IC50) and the “SI, MCF-7” value was 1.09. Further, in the series on THP-1 cell line, the half-inhibitory concentration (IC50) was determined as 214 ± 22.1 µg/mL (≈ 1180 µM) and the “SI, THP-1” value is given as 0.81.

In the case of `CC=C1C(OC)OC=C2C(=O)OC3CC(C(C)CO)C(COC(=O)CC21)C3C` (single isomer, unassigned; (-)) [Compound 1, (-)-1-Methoxyjasmigenin], half-maximal cytotoxicity in series [1] (CC50) was put at 61.7 ± 1.26 µg/mL (≈ 156 µM). Also, in the series on HepG-2 cell line, 59.8 ± 1.45 µg/mL (≈ 152 µM) corresponded to half-maximal inhibition (IC50) and the “SI, HepG-2” value was 1.03. For the same compound, in the series with MCF-7 cell line, 78.9 ± 1.79 µg/mL (≈ 200 µM) corresponded to half-maximal inhibition (IC50) and the “SI, MCF-7” value stood at 0.78. For the same compound, in the series on THP-1 cell line, the 50% inhibitory concentration (IC50) came to 91.5 ± 14.9 µg/mL (≈ 232 µM) and the “SI, THP-1” value worked out at 0.67.

For the compound `CC=C1C(OC2OC(CO)C(O)C(O)C2O)OC=C2C(=O)OC3CC(C(C)CO)C(COC(=O)CC21)C3C` (centres unmarked) [Compound 3, jasminin], the midpoint of cytotoxicity in series [1], the CC50, lay at 44.7 ± 1.84 µg/mL (≈ 82.4 µM). Besides, in the series with HepG-2 cell line, the IC50 was 44.2 ± 4.32 µg/mL (≈ 81.5 µM) and the “SI, HepG-2” value is given as 1.01. In the series on MCF-7 cell line, the half-maximal inhibitory concentration (IC50) amounted to 28.6 ± 1.18 µg/mL (≈ 52.7 µM) and the “SI, MCF-7” value is 1.57. In the series on THP-1 cell line, the IC50 was determined as 82.7 ± 15.7 µg/mL (≈ 152 µM) and the “SI, THP-1” value is 0.54.

In series [1], `COc1cccc2c1C(=O)c1c(O)c3c(c(O)c1C2=O)C[C@@](O)(C(=O)CO)C[C@@H]3O[C@H]1C[C@H](N)[C@H](O)[C@H](C)O1` [Doxorubicin, doxorubicin, reference compound] yielded a CC50 of 116 ± 6.1 µg/mL (≈ 213 µM). For the same compound, in the series on HepG-2 cell line, the IC50 amounted to 31.6 ± 6.58 µg/mL (≈ 58.2 µM) and the “SI, HepG-2” value was determined as 3.65. Besides, in the series on MCF-7 cell line, the midpoint of inhibition, the IC50, lay at 52.8 ± 5.36 µg/mL (≈ 97.1 µM) and the “SI, MCF-7” value turned out to be 2.19. Moreover, in the series on THP-1 cell line, the IC50 worked out at 47.8 ± 7.03 µg/mL (≈ 88 µM) and the “SI, THP-1” value is 2.41.

`CC=C1C(OC2OC(CO)C(O)C(O)C2O)OC=C2C(=O)OCC(C)C3(O)CCC(C)C3COC(=O)CC21` (centres unmarked) [Compound 4, isojasminin]: the half-maximal cytotoxic concentration (CC50) in series [1] was determined as 102 ± 3.03 µg/mL (≈ 187 µM). Also, in the series on HepG-2 cell line, the IC50 came to 33.5 ± 2.32 µg/mL (≈ 61.7 µM) and the “SI, HepG-2” value was determined as 3.03. In the series on MCF-7 cell line, inhibition was half-maximal at 43.1 ± 3.02 µg/mL (≈ 79.5 µM) (IC50) and the “SI, MCF-7” value was found to be 2.35. In the series with THP-1 cell line, the IC50 is 51.1 ± 10.3 µg/mL (≈ 94.1 µM) and the “SI, THP-1” value is 1.99.

`CC=C1C(OC2OC(CO)C(O)C(O)C2O)OC=C(C(=O)OC)C1CC(=O)OCC(C)C1CC2OC(=O)C3=COC(OC4OC(CO)C(O)C(O)C4O)C(=CC)C3CC(=O)OCC1C2C` (centres unmarked) [Compound 5, jasmoside] returned a half-maximal cytotoxic concentration (CC50) in series [1] of 210 ± 5.05 µg/mL (≈ 226 µM). In the series on HepG-2 cell line, inhibition was half-maximal at 66.5 ± 8.15 µg/mL (≈ 71.6 µM) (IC50) and the “SI, HepG-2” value came out at 3.16. Also, in the series on MCF-7 cell line, the half-inhibitory concentration (IC50) came out at 41.3 ± 1.77 µg/mL (≈ 44.5 µM) and the “SI, MCF-7” value is reported as 5.09. In the series with THP-1 cell line, the concentration for half-maximal inhibition (IC50) amounted to 27.6 ± 4.63 µg/mL (≈ 29.7 µM) and the “SI, THP-1” value was found to be 7.62.
